In general, EC30 refers to the point of the concentration-response curve where the effect stands at 30%.

Drawing on patent publication US9346761B2, “Arginine methyltransferase inhibitors and uses thereof” (Epizyme, Inc., priority 2013, dated 2016), this text covers EC30 for 80 molecules.

The first experiment deals with mono-methyl arginine in RKO cells. The experiment can be described thus: RKO methylation assay, In Cell Western for mono-methyl arginine and DNA content. The class given is cell-based. To be noted: Homo sapiens, RKO, 72 h.
Turning to `CC(C)Oc1ccc(-c2n[nH]cc2CN(C)CCN)cc1F` [Compound 97], the EC30 was under 3 µM.

In turn, `CC(C)c1ccc(-c2c[nH]nc2CN(C)CCN)cc1` [Compound 101] returned an EC30 of 3.01 to 12 µM.

`COc1ccc(-c2n[nH]cc2CN(C)CCN)cc1Cl` [Compound 125] gave a concentration for an effect of 30% (EC30) of under 3 µM.

Turning to `CN(CCN)Cc1c[nH]nc1-c1ccc(Cl)cc1F` [Compound 132], the EC30 is under 3 µM.

Staying with this experiment, now noted: Homo sapiens; In Cell Western, RKO cells, 72 hours, percent activation of mono-methyl arginine signal; read-out: EC30.
For the molecule `COCCn1cc(CN(C)CCN)c(-c2ccc(F)cc2)n1` [Compound 5], the EC30 is over 12 µM.

`COCCn1ncc(CN(C)CCN)c1-c1ccc(F)cc1` [Compound 6]: the concentration for an effect of 30% (EC30) was over 12 µM.

With `CCn1ncc(CN(C)CCNC)c1-c1ccc(F)cc1` [Compound 7], the 30% effect concentration (EC30) fell in the range of 3.01 to 12 µM.

For the molecule `CCn1cc(CN(C)CCNC)c(-c2ccc(F)cc2)n1` [Compound 8], the EC30 was over 12 µM.

For `CN(CCN)Cc1c[nH]nc1-c1ccc(Cl)cc1` [Compound 95], the 30% effect concentration (EC30) is under 3 µM.

On to `CN(CCN)Cc1c[nH]nc1-c1ccc(OCC(F)(F)F)cc1` [Compound 96], for which the concentration for an effect of 30% (EC30) is under 3 µM.

With `CN(CCN)Cc1c[nH]nc1-c1ccc(C2CCOCC2)cc1` [Compound 98], the EC30 was under 3 µM.

Turning to `CN(CCN)Cc1c[nH]nc1-c1ccc(F)cc1F` [Compound 99], the 30% effect concentration (EC30) lay within 3.01 to 12 µM.

For the molecule `CN(CCN)Cc1n[nH]cc1-c1ccc(C#N)cc1` [Compound 100], the EC30 is under 3 µM.

`CN(CCN)Cc1n[nH]cc1-c1ccc(Cl)cc1` [Compound 102]: the EC30 is under 3 µM.

`CN(CCN)Cc1n[nH]cc1-c1ccc(C(F)(F)F)cc1` [Compound 103]: the 30% effect concentration (EC30) lay within 3.01 to 12 µM.

`CN(CCN)Cc1n[nH]cc1-c1ccc(C2CC2)cc1` [Compound 104]: the 30% effect concentration (EC30) lay within 3.01 to 12 µM.

As to `CN(CCN)Cc1n[nH]cc1-c1ccc(OC(F)(F)F)cc1` [Compound 105], the 30% effect concentration (EC30) is under 3 µM.

`CN(CCN)Cc1c[nH]nc1-c1cc(F)ccc1Cl` [Compound 106]: the EC30 was over 12 µM.

For `COc1ccc(-c2n[nH]cc2CN(C)CCN)c(F)c1` [Compound 107], the EC30 is over 12 µM.

Regarding `Cc1ccc(-c2n[nH]cc2CN(C)CCN)c(F)c1` [Compound 108], the EC30 is over 12 µM.

As for `COc1ccccc1-c1n[nH]cc1CN(C)CCN` [Compound 109], the 30% effect concentration (EC30) was over 12 µM.

Turning to `Cc1cc(C#N)ccc1-c1n[nH]cc1CN(C)CCN` [Compound 110], the concentration for an effect of 30% (EC30) was over 12 µM.

Regarding `CN(CCN)Cc1c[nH]nc1-c1cc(F)cc(F)c1` [Compound 111], the concentration for an effect of 30% (EC30) was over 12 µM.

Consider `CC(=O)c1cccc(-c2n[nH]cc2CN(C)CCN)c1` [Compound 112], for which the concentration for an effect of 30% (EC30) is over 12 µM.

As for `CN(CCN)Cc1cnn(CC(O)CO)c1-c1ccc(F)cc1` (centres unmarked) [Compound 113], the EC30 is over 12 µM.

Take `CN(CCN)Cc1c[nH]nc1-c1ccc(OC2CC2)cc1` [Compound 114]: the concentration for an effect of 30% (EC30) is under 3 µM.

On to `CC(O)c1ccc(-c2n[nH]cc2CN(C)CCN)cc1` (centres unmarked) [Compound 115], for which the EC30 is over 12 µM.

With `CN(CCN)Cc1c[nH]nc1-c1ccc(C2CC2)cc1` [Compound 116], the EC30 was under 3 µM.

Regarding `CN(CCN)Cc1c[nH]nc1-c1ccc(C(F)(F)F)c(Cl)c1` [Compound 117], the 30% effect concentration (EC30) is under 3 µM.

In the case of `CN(CCN)Cc1c[nH]nc1-c1ccc(Cl)c(F)c1` [Compound 118], the EC30 was under 3 µM.

For the molecule `CN(CCN)Cc1n[nH]cc1-c1ccc(OC2CC2)cc1` [Compound 119], the EC30 lay within 3.01 to 12 µM.

In the case of `CN(CCN)Cc1c[nH]nc1-c1cc(F)cc(Cl)c1` [Compound 121], the EC30 is under 3 µM.

`CN(CCN)Cc1c[nH]nc1-c1cccc(Cl)c1` [Compound 122]: the concentration for an effect of 30% (EC30) lay in the range of 3.01 to 12 µM.

For `CN(CCN)Cc1c[nH]nc1-c1cccc(Cl)c1F` [Compound 123], the EC30 is under 3 µM.

Regarding `CN(CCN)Cc1c[nH]nc1-c1ccc(F)c(Cl)c1` [Compound 124], the concentration for an effect of 30% (EC30) was under 3 µM.

Regarding `Cc1ccc(-c2n[nH]cc2CN(C)CCN)cc1Cl` [Compound 126], the EC30 is under 3 µM.

In the case of `COc1cc(Cl)cc(-c2n[nH]cc2CN(C)CCN)c1` [Compound 127], the 30% effect concentration (EC30) was 3.01 to 12 µM.

As to `CN(CCN)Cc1cn(CC2CCOCC2)nc1-c1ccc(F)cc1` [Compound 128], the 30% effect concentration (EC30) was over 12 µM.

`Cc1c(F)cccc1-c1n[nH]cc1CN(C)CCN` [Compound 129]: the concentration for an effect of 30% (EC30) fell in the range of 3.01 to 12 µM.

For the molecule `COc1cccc(-c2n[nH]cc2CN(C)CCN)c1` [Compound 130], the EC30 is 3.01 to 12 µM.

As for `Cc1cccc(-c2n[nH]cc2CN(C)CCN)c1` [Compound 131], the EC30 is under 3 µM.

On to `Cc1cc(Cl)ccc1-c1n[nH]cc1CN(C)CCN` [Compound 133], for which the EC30 was under 3 µM.

Regarding `COc1ccc(-c2n[nH]cc2CN(C)CCN)cc1F` [Compound 134], the EC30 is under 3 µM.

In the case of `CN(CCN)Cc1c[nH]nc1-c1ccc(C(F)(F)F)cc1Cl` [Compound 135], the EC30 lay within 3.01 to 12 µM.

For `CCNC(=O)c1ccc(-c2n[nH]cc2CN(C)CCN)cc1` [Compound 136], the concentration for an effect of 30% (EC30) is over 12 µM.

For `CN(CCN)Cc1c[nH]nc1-c1cc(Cl)cc(Cl)c1` [Compound 137], the EC30 fell in the range of 3.01 to 12 µM.

Regarding `CN(CCN)Cc1n[nH]cc1-c1ccc(OC(F)F)cc1` [Compound 138], the EC30 is under 3 µM.

For the molecule `CN(CCN1CCCC1)Cc1c[nH]nc1-c1ccc(C#N)cc1` [Compound 139], the 30% effect concentration (EC30) was over 12 µM.

As to `CN(CCN)Cc1c[nH]nc1-c1ccccc1C#N` [Compound 140], the EC30 is over 12 µM.

For `CN(CCN)Cc1c[nH]nc1-c1ccc(C(F)(F)F)c(F)c1` [Compound 141], the 30% effect concentration (EC30) is under 3 µM.

On to `COc1cc(-c2n[nH]cc2CN(C)CCN)ccc1F` [Compound 142], for which the 30% effect concentration (EC30) was under 3 µM.

Turning to `CCN(CC)C(=O)c1ccc(-c2n[nH]cc2CN(C)CCN)cc1` [Compound 143], the concentration for an effect of 30% (EC30) was over 12 µM.

For the molecule `CC(C)Oc1ccc(-c2c[nH]nc2CN(C)CCN)cc1F` [Compound 144], the EC30 is under 3 µM.

For the molecule `CN(CCN)Cc1n[nH]cc1-c1ccc(C2CCOCC2)cc1` [Compound 145], the EC30 is under 3 µM.

For the molecule `COc1ccc(-c2n[nH]cc2CN(C)CCN)c(Cl)c1` [Compound 146], the concentration for an effect of 30% (EC30) was in the range of 3.01 to 12 µM.

Consider `CN(CCN)Cc1c[nH]nc1-c1cc(C#N)ccc1Cl` [Compound 147], for which the concentration for an effect of 30% (EC30) was over 12 µM.

With `CN(CCN)Cc1c[nH]nc1-c1ccc(C(F)(F)F)cc1F` [Compound 148], the 30% effect concentration (EC30) lay within 3.01 to 12 µM.

As for `CN(CCN)Cc1c[nH]nc1-c1cccc(N(C)C)c1` [Compound 149], the EC30 was in the range of 3.01 to 12 µM.

Regarding `CCOC(=O)c1cccc(-c2n[nH]cc2CN(C)CCN)c1` [Compound 150], the EC30 lay in the range of 3.01 to 12 µM.

`COc1cc(F)ccc1-c1n[nH]cc1CN(C)CCN` [Compound 151]: the 30% effect concentration (EC30) lay in the range of 3.01 to 12 µM.

Consider `Cc1cc(F)ccc1-c1n[nH]cc1CN(C)CCN` [Compound 152], for which the EC30 lay within 3.01 to 12 µM.

Consider `COc1ccc(-c2n[nH]cc2CN(C)CCN)cc1` [Compound 153], for which the EC30 is under 3 µM.

`COc1ccc(-c2n[nH]cc2CN(C)CCN)c(C(F)(F)F)c1` [Compound 154]: the 30% effect concentration (EC30) is over 12 µM.

With `COc1ccc(-c2n[nH]cc2CN(C)CCN)c(C)c1` [Compound 155], the 30% effect concentration (EC30) lay in the range of 3.01 to 12 µM.

With `CN(CCN)Cc1c[nH]nc1-c1cc(Cl)ccc1F` [Compound 156], the 30% effect concentration (EC30) lay within 3.01 to 12 µM.

Take `COc1ccc(Cl)cc1-c1n[nH]cc1CN(C)CCN` [Compound 157]: the 30% effect concentration (EC30) is over 12 µM.

For the molecule `Cc1ccc(C#N)cc1-c1n[nH]cc1CN(C)CCN` [Compound 158], the concentration for an effect of 30% (EC30) was over 12 µM.

With `Cc1ccc(F)cc1-c1n[nH]cc1CN(C)CCN` [Compound 159], the EC30 was in the range of 3.01 to 12 µM.

For `COc1ccc(F)cc1-c1n[nH]cc1CN(C)CCN` [Compound 160], the EC30 is over 12 µM.

Take `Cc1ccccc1-c1n[nH]cc1CN(C)CCN` [Compound 161]: the EC30 is over 12 µM.

As for `Cc1ccc(-c2n[nH]cc2CN(C)CCN)cc1` [Compound 162], the EC30 is under 3 µM.

For the molecule `CCN(C)C(=O)c1ccc(-c2n[nH]cc2CN(C)CCN)cc1` [Compound 163], the EC30 was over 12 µM.

As for `CC(C)CN(C)C(=O)c1ccc(-c2n[nH]cc2CN(C)CCN)cc1` [Compound 164], the concentration for an effect of 30% (EC30) is over 12 µM.

As to `CCOc1ccc(-c2n[nH]cc2CN(C)CCN)cc1` [Compound 166], the EC30 is under 3 µM.

`COCCOc1ccc(-c2n[nH]cc2CN(C)CCN)cc1` [Compound 167]: the EC30 was under 3 µM.

For `Cc1[nH]nc(-c2ccc(F)cc2)c1CN(C)CCN` [Compound 169], the EC30 is over 12 µM.

Regarding `CC(C)Cc1ccc(-c2c[nH]nc2CN(C)CCN)cc1` [Compound 170], the EC30 is under 3 µM.

As for `NCCN(CCO)Cc1c[nH]nc1-c1ccc(F)cc1` [Compound 171], the 30% effect concentration (EC30) is over 12 µM.

In the case of `CN(CCN)Cc1c[nH]nc1-c1ccc(OCCN2CCOCC2)cc1` [Compound 172], the EC30 was over 12 µM.

On to `CN(CCN)Cc1c[nH]nc1-c1ccc2c(c1)NC(=O)CO2` [Compound 173], for which the 30% effect concentration (EC30) was over 12 µM.
